In brackets after ≈: the same amount, converted by molar mass.
Assays:
[1] = Solubility limit in cytotoxicity testing; format: physicochemical; conditions: cytotoxicity (MTT) assay medium; read-out: Highest concentration that could be used due to solubility limitations
Method: (§1) The cytotoxicity of NP16 in MDCK cells was evaluated by MTT (3-[4,5-dimethylthiazol-2-yl]-2,5-diphenyltetrazolium bromide) assay according to manufacturer's instructions. A toxic control (1%) SDS was included to ensure the MTT assay was effective. The highest concentration of NP16 that could be used was 500 μM due to solubility limitations. SigmaPlot 11.0 (SPSS, IL) was used for graph plotting. Experiments were repeated twice in triplicate.
(§2) The cytotoxicity of NP-16 and some of it analogues in Raw 264.7 cells was also evaluated by MTT (3-[4,5-dimethylthiazol-2-yl]-2,5-diphenyltetrazolium bromide) assay according to manufacturer's instructions. A toxic control (1%) SDS was included to ensure the MTT assay was working properly. The highest concentration of NP-16 analogues used was 500 μM due to solubility limitations. SigmaPlot 11.0 (SPSS, IL) was used for graph plotting. Experiments were carried out in triplicate and repeated twice.

MDCK cells = assay: Cytotoxicity in MDCK cells (MTT assay); format: cell-based; conditions: up to 500 μM
Method: as §1
(§3) The IC50 values were obtained by fitting the inhibition data to a normal dose-response curve in SigmaPlot (CA).

Raw 264.7 cells = assay: Cytotoxicity in Raw 264.7 cells (MTT assay); format: cell-based; parameters: unit not given here; conditions: highest concentration 500 μM
Method: as §2
(§4) The cytotoxicity of NP-16 and some of it analogues was tested against Raw 264.7 cells, and the cell tolerance of each compounds were documented in Table 3. Along with the in vitro staphyloxanthin production of the NP-16 analogues were being tested, the compounds can exert staphyloxanthin production inhibition. The staphyloxanthin from the overnight-cultured bacteria were extracted with methanol and quantified in via spectrophotometry. The results were presented in relative ratio to NP-16 in both the inhibition ratio as well as the TC50 in Table 3 (compound/analogue numbers correspond to those listed in Table 1).

[2] = tested on: S. aureus pigment formation (staphyloxanthin production); assay: In vitro pigment inhibition / staphyloxanthin production in S. aureus; format: cell-based, Staphylococcus aureus; conditions: S. aureus USA300, staphyloxanthin methanol extract OD 450 nm, compounds 300 nM to 700 nM, NP16 = 1
Method: S. aureus was propagated in Brain Heart Infusion broth (BHI) or on BHI agar (Oxoid). The in vitro pigment inhibition studies were performed by S. aureus USA300 cultured in BHI with or without the presence of inhibitor compounds at 37° C. and 250 rpm for 36-48 hours. The bacteria were washed twice with PBS prior to the staphyloxanthin purification with methanol. The OD of the extracts were monitor at 450 nm using DTX880 multi-plate reader spectrophotometer (Beckman). The concentration range tested for the compounds were between 300 nM to 700 nM, and control groups were added with equal volume of DMSO.
as §3, §4

[3] = tested on: polymorphonuclear leukocytes; conditions: at high concentrations, reference [14]; cited from earlier work
[4] = target: 4,4-diapophytoene desaturase (CrtN) (Staphylococcus aureus, UniProt Q7A3E2); conditions: reference [5]; cited from earlier work
Chain of 4,4-diapophytoene desaturase (CrtN) (Q7A3E2 whole entry): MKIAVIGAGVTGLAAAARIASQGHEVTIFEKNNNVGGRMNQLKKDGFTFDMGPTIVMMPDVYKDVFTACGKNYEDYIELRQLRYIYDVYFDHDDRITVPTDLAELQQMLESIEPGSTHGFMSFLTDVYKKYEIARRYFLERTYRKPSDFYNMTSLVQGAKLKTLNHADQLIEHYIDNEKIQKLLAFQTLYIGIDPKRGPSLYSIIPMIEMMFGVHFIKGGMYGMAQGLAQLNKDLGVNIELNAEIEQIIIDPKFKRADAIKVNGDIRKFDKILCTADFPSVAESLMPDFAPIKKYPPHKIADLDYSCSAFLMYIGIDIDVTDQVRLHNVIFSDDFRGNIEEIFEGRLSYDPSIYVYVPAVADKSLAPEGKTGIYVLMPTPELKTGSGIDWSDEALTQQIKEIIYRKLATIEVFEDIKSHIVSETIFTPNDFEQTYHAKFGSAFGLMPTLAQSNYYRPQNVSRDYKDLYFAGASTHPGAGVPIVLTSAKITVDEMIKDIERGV

Q: Which results are given for `O=C(/C=C/c1ccccc1)Nc1ccc(S(=O)(=O)N2CCCC2)cc1` [Compound 1, 3-phenyl-N-[4-(1-pyrrolidinylsulfonyl)phenyl]acryl-amide]?
A: solubility [1]: 500 µM (≈ 178 µg/mL); Effect on the growth of MDCK cells (MDCK cells): no effect; TC50 to Raw 264.7 cells (Raw 264.7 cells): >200

Q: For `O=C(/C=C/c1cccc(Br)c1)Nc1ccc(S(=O)(=O)N2CCCC2)cc1` [Compound 11, 3-(5-bromophenyl)-N-[4-(1-pyrrolidinylsulfonyl)phenyl]acryl-amide], which “TC50 to Raw 264.7 cells” value (Raw 264.7 cells) is on record?
A: >200

Q: And the “Relative ratio to NP16 based on inhibition ratio” value [2]?
A: 1.03

Q: With `Cc1ccc(/C=C/C(=O)Nc2ccc(S(=O)(=O)N3CCCC3)cc2)cc1` [Compound 14, 3-(4-methylphenyl)-N-[4-(1-pyrrolidinylsulfonyl)phenyl]acryl-amide] as the compound, how does the “TC50 to Raw 264.7 cells” value (Raw 264.7 cells) read?
A: >200

Q: What about the “Relative ratio to NP16 based on inhibition ratio” value [2] of the same compound?
A: 0.83

Q: For `CC(=O)Oc1ccc(/C=C/C(=O)Nc2ccc(S(=O)(=O)N3CCCC3)cc2)cc1` [Compound 19, 3-(4-acetoxylphenyl)-N-[4-(1-pyrrolidinylsulfonyl)phenyl]acryl-amide], which “TC50 to Raw 264.7 cells” value (Raw 264.7 cells) is on record?
A: ~150

Q: And the “Relative ratio to NP16 based on inhibition ratio” value [2]?
A: 0.86

Q: With `Cc1ccccc1/C=C/C(=O)Nc1ccc(S(=O)(=O)N2CCCC2)cc1` [Compound 15, 3-(6-methylphenyl)-N-[4-(1-pyrrolidinylsulfonyl)phenyl]acryl-amide] as the compound, how does the “TC50 to Raw 264.7 cells” value (Raw 264.7 cells) read?
A: >200

Q: And the “Relative ratio to NP16 based on inhibition ratio” value [2]?
A: 1.73

Q: For `CC(=O)Oc1ccccc1/C=C/C(=O)Nc1ccc(S(=O)(=O)N2CCCC2)cc1` [Compound 18, 3-(6-acetoxylphenyl)-N-[4-(1-pyrrolidinylsulfonyl)phenyl]acryl-amide], which “TC50 to Raw 264.7 cells” value (Raw 264.7 cells) is on record?
A: ~150

Q: And the “Relative ratio to NP16 based on inhibition ratio” value [2]?
A: 0.35

Q: Which “TC50 to Raw 264.7 cells” value (Raw 264.7 cells) does the source give for `O=C(/C=C/c1ccc(Br)cc1)Nc1ccc(S(=O)(=O)N2CCCC2)cc1` [Compound 13, 3-(4-bromophenyl)-N-[4-(1-pyrrolidinylsulfonyl)phenyl]acryl-amide] here?
A: >200

Q: What about the “Relative ratio to NP16 based on inhibition ratio” value [2] of the same compound?
A: 0.25

Q: With `O=C(/C=C/c1cccc(-c2ccccc2)c1)Nc1ccc(S(=O)(=O)N2CCCC2)cc1` [Compound 20, 3-(5-phenylphenyl)-N-[4-(1-pyrrolidinylsulfonyl)phenyl]acryl-amide] as the compound, how does the “TC50 to Raw 264.7 cells” value (Raw 264.7 cells) read?
A: >200

Q: What about the “Relative ratio to NP16 based on inhibition ratio” value [2] of the same compound?
A: 0.61

Q: With `O=C(/C=C/c1ccccc1Br)Nc1ccc(S(=O)(=O)N2CCCC2)cc1` [Compound 12, 3-(6-bromophenyl)-N-[4-(1-pyrrolidinylsulfonyl)phenyl]acryl-amide] as the compound, how does the “TC50 to Raw 264.7 cells” value (Raw 264.7 cells) read?
A: >200

Q: And the “Relative ratio to NP16 based on inhibition ratio” value [2]?
A: 2.35

Q: Which results are given for `CC(=O)Oc1cccc(/C=C/C(=O)Nc2ccc(S(=O)(=O)N3CCCC3)cc2)c1` [Compound 17, 3-(5-acetoxylphenyl)-N-[4-(1-pyrrolidinylsulfonyl)phenyl]acryl-amide]?
A: TC50 to Raw 264.7 cells (Raw 264.7 cells): ~75; Relative ratio to NP16 based on inhibition ratio [2]: 0.58

Q: Which “Chemotaxis, chemokinesis, chemiluminescence and superoxide anion production of polymorphonuclear leukocytes” value [3] does the source give for `CN(C/C=C/c1ccccc1)Cc1cccc2ccccc12` [naftifine] here?
A: suppress

Q: For `O=C(/C=C/c1ccc(O)cc1)Nc1ccc(S(=O)(=O)N2CCCC2)cc1` [Compound 16, 3-(4-hydroxylphenyl)-N-[4-(1-pyrrolidinylsulfonyl)phenyl]acryl-amide], which “TC50 to Raw 264.7 cells” value (Raw 264.7 cells) is on record?
A: 75

Q: What about the “Relative ratio to NP16 based on inhibition ratio” value [2] of the same compound?
A: 0.33

Q: With `c1ccc(Nc2ccccc2)cc1` [Diphenylamine] as the compound, how does the “Inhibition of CrtN” value [4] read?
A: high micromolar level
